Results reported in patent US9296693B2, “Acyl piperidine inhibitors of soluble epoxide hydrolase” (The Regents of the University of California, priority 2010, dated 2016).

How the values were obtained:
murine sEH = murine sEH (Mus musculus (Mouse), UniProt P34914); assay: fluorescent based IC50 assay (CMNPC substrate), recombinant murine sEH; assay type: biochemical; details: homogenous recombinant murine sEH 1 nM, CMNPC 5 μM, pH 7.0, 30° C., average of three replicates
Human sEH = Human sEH (Homo sapiens (Human), UniProt P34913); assay: fluorescent based IC50 assay (CMNPC substrate), recombinant human sEH; details: read-out: IC50 (nM) Human; homogenous recombinant human sEH 1 nM, CMNPC 5 μM, pH 7.0, 30° C., average of three replicates;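 also: enzyme preincubated with inhibitor for 5 min before adding substrate, in 25 mM Bis-Tris/HCl buffer supplemented with 0.1 mg/mL BSA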
Chain of Human sEH (P34913 whole entry): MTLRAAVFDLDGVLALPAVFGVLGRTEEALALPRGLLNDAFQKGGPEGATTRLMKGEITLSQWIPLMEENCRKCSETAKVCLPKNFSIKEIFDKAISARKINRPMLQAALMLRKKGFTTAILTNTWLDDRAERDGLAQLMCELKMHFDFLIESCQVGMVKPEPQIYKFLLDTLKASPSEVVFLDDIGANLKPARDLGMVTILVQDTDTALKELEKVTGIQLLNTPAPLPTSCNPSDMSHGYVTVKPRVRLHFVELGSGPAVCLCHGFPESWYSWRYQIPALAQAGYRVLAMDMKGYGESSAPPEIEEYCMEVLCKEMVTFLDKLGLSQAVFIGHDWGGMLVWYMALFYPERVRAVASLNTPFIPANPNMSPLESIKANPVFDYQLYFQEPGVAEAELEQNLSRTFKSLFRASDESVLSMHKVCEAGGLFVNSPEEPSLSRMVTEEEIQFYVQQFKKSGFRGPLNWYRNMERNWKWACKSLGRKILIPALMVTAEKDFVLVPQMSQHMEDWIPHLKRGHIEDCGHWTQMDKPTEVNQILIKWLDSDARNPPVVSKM

Chain of murine sEH (P34914 whole entry): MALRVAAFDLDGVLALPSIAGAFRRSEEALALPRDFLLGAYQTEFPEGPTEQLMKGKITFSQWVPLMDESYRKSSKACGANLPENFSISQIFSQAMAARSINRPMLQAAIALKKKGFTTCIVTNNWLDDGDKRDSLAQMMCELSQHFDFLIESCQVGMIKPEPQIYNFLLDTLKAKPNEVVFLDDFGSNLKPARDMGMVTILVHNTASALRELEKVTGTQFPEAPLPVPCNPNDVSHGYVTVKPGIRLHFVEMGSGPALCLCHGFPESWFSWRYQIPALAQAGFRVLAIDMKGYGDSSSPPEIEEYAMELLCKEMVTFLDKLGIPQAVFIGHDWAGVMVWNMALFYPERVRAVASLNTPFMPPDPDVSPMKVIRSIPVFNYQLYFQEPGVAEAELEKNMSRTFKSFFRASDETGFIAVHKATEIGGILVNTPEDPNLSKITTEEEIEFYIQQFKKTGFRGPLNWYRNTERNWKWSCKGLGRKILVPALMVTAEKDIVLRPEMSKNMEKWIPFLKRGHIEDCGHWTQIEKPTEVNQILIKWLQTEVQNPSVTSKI

Compound | IC50 (murine sEH) [nM] | IC50 (Human sEH) [nM]
CCC(=O)N1CCC(NC(=O)Nc2ccc(O)cc2)CC1 [Compound 23, 1-(4-Hydroxyphenyl)-3-(1-propionylpiperidin-4-yl)urea] | 1400 | 
O=C(Nc1ccc(OC(F)(F)F)cc1)NC1CCN(C(=O)C2CC2)CC1 [Compound 52, 1-(1-(Cyclopropanecarbonyl)piperidin-4-yl)-3-(4-(trifluoromethoxy)phenyl) urea] | 0.4 | 
CCC(=O)N1CCC(NC(=O)Nc2cccc(Cl)c2)CC1 [Compound 30, 1-(3-Chlorophenyl)-3-(1-propionylpiperidin-4-yl)urea] | 6.6 | 21
CCC(=O)N1CCC(NC(=O)Nc2cccc(C(F)(F)F)c2)CC1 [Compound 37, 1-(1-Propionylpiperidin-4-yl)-3-(3-(trifluoromethyl)phenyl)urea] | 8.8 | 17
CCC(=O)N1CCC(NC(=O)NC2CCCCC2)CC1 [Compound 4, 1-Cyclohexyl-3-(1-propionylpiperidin-4-yl)urea] | 3.5 | 12
CCC(=O)N1CCC(NC(=O)Nc2ccc(I)cc2)CC1 [Compound 27, 1-(4-Iodophenyl)-3-(1-propionylpiperidin-4-yl)urea] | 1.4 | 7.2
CCC(=O)N1CCC(NC(=O)Nc2ccccc2Cl)CC1 [Compound 31, 1-(2-Chlorophenyl)-3-(1-propionylpiperidin-4-yl)urea] | 2900 | 1100
CCC(=O)N1CCC(NC(=O)Nc2ccc(C(F)(C(F)(F)F)C(F)(F)F)cc2)CC1 [Compound 38, 1-(4-Perfluoroisopropylphenyl)-3-(1-propionylpiperidin-4-yl)urea] | 0.7 | 0.4
CCC(=O)N1CCC(NC(=O)Nc2ccc(N3CCOCC3)cc2)CC1 [Compound 19, 1-(4-Morpholinophenyl)-3-(1-propionylpiperidin-4-yl)urea] | 650 | 2000
CCC(=O)N1CCC(NC(=O)Nc2ccc(Cl)c(Cl)c2)CC1 [Compound 32, 1-(3,4-Dichlorophenyl)-3-(1-propionylpiperidin-4-yl)urea] | 0.6 | 3.4
CCC(=O)N1CCC(NC(=O)Nc2cc(Cl)cc(Cl)c2)CC1 [Compound 33, 1-(3,5-Dichlorophenyl)-3-(1-propionylpiperidin-4-yl)urea] | 1 | 0.4
CCC(=O)N1CCC(NC(=O)Nc2ccccc2F)CC1 [Compound 29, 1-(2-Fluorophenyl)-3-(1-propionylpiperidin-4-yl)urea] | 780 | 300
Cc1ccc(S(=O)(=O)N2CCC(NC(=O)Nc3ccc(OC(F)(F)F)cc3)CC2)cc1 [Compound 58, 1-(1-Tosylpiperidin-4-yl)-3-(4-(trifluoromethoxy)phenyl)urea] | 0.4 | 
CCC(=O)N1CCC(NC(=O)Nc2ccc(C(=O)O)cc2)CC1 [Compound 22, 4-(3-(1-Propionylpiperidin-4-yl)ureido)benzoic acid] | 1000 | 330
CCC(=O)N1CCC(NC(=O)Nc2ccc([N+](=O)[O-])cc2)CC1 [Compound 20, 1-(4-Nitrophenyl)-3-(1-propionylpiperidin-4-yl)urea] | 97 | 
CS(=O)(=O)N1CCC(NC(=O)Nc2ccc(OC(F)(F)F)cc2)CC1 [Compound 55, 1-(1-(Methylsulfonyl)piperidin-4-yl)-3-(4-(trifluoromethoxy)phenyl)urea] | 2 | 2.9
CCC(=O)N1CCC(NC(=O)Nc2ccc(Br)cc2)CC1 [Compound 26, 1-(4-Bromophenyl)-3-(1-propionylpiperidin-4-yl)urea] | 15 | 3.6
O=C(Nc1ccc(OC(F)(F)F)cc1)NC1CCN(C(=O)C(F)(F)F)CC1 [Compound 53, 1-(1-(Trifluoroacetyl)piperidin-4-yl)-3-(4-(trifluoromethoxy)phenyl) urea] | 0.4 | 
CCC(=O)N1CCC(NC(=O)Nc2ccc(C(F)(F)F)cc2)CC1 [Compound 36, 1-(1-Propionylpiperidin-4-yl)-3-(4-(trifluoromethyl)phenyl)urea] | 6.5 | 
